pIC50: −log10 of the molar value. Blank lines part the entries; values can stand above or below the molecule they belong to.
Legend:
[1] = target: T1, Coagulation factor XI (Homo sapiens, UniProt P03951); assay: Inhibition of human Factor XIa assessed as substrate hydrolysis measured by measuring residual activity after 10 mins by chromogenic substrate hydrolysis assay relative to control
[2] = target: T2, Prothrombin (Homo sapiens, UniProt P00734); assay: Inhibition of thrombin in human plasma assessed as maximal efficacy measured after 10 mins by chromogenic substrate hydrolysis assay relative to control; type: cell-free
[3] = target: T2, Prothrombin; assay: Inhibition of thrombin in human plasma measured after 10 mins by chromogenic substrate hydrolysis assay; type: cell-free
[4] = target: Coagulation factor X (Homo sapiens) (UniProt P00742); assay: Inhibition of human factor Xa assessed as fold change relative to basal value
Coagulation factor X (Homo sapiens), sequence (P00742 41-179 limits assumed): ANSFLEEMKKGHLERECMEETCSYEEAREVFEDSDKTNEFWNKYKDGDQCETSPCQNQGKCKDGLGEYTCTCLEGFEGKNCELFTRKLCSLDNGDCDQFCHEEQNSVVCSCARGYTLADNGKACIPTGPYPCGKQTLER
Coagulation factor X (Homo sapiens), sequence (P00742 235-488 limits assumed): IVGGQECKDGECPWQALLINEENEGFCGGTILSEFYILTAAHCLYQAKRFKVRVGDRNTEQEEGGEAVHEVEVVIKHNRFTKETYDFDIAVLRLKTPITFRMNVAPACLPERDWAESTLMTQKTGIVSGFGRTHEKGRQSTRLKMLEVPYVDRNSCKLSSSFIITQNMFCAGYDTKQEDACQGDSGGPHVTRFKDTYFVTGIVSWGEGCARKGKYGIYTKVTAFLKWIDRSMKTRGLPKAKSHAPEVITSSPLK

[5] = target: T1, Coagulation factor XI; assay: Inhibition of human factor XIa
[6] = target: T1, Coagulation factor XI; assay: Inhibition of human recombinant FXIa assessed as S-2366 hydrolysis

T1 sequence (P03951 19-387 limits assumed): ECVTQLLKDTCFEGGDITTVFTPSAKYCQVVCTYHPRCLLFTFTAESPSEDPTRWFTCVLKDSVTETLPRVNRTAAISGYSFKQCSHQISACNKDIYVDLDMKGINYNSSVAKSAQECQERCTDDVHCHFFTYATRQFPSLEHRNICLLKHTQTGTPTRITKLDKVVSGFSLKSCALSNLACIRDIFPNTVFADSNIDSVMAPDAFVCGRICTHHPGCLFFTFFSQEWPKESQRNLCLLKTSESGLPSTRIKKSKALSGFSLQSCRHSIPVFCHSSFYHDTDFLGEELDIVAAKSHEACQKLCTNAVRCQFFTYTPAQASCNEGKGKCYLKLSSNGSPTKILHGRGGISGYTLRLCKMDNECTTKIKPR
T1 sequence (P03951 388-625 limits assumed): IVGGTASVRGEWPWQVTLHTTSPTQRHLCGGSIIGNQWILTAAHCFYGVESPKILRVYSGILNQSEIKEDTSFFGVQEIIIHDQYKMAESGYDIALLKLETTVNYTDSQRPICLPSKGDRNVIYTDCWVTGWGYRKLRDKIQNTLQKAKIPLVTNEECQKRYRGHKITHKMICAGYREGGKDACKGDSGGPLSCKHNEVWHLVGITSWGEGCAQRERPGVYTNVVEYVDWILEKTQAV

Activity [1]: > 90%
Compound: O=C(Nc1ccc(C(=O)Nc2ccc(C(=O)Nc3ccc(S(=O)(=O)O)c4cc(S(=O)(=O)O)cc(S(=O)(=O)O)c34)cc2)cc1)Nc1ccc(C(=O)Nc2ccc(C(=O)Nc3ccc(S(=O)(=O)O)c4cc(S(=O)(=O)O)cc(S(=O)(=O)O)c34)cc2)cc1

Efficacy [2]: 47%
pIC50 [3]: 6.74
Compound: O=c1oc2cc(OCCCCn3cc(COc4ccc(-c5oc(=O)c6c(Cl)cc(Cl)cc6c5-c5ccccc5)cc4)nn3)ccc2c(-c2ccccc2)c1-c1ccc(OS(=O)(=O)O)cc1

fold change (FC) [4]: 20.8
Compound: O=S(=O)(O)Oc1cc2c(c(OS(=O)(=O)O)c1)C[C@H](OS(=O)(=O)O)[C@@H](c1ccc(OS(=O)(=O)O)c(OS(=O)(=O)O)c1)O2

fold change (FC) [4]: 10.8
Compound: O=S(=O)(O)Oc1cc2c(c(OS(=O)(=O)O)c1)C[C@@H](OS(=O)(=O)O)[C@@H](c1ccc(OS(=O)(=O)O)c(OS(=O)(=O)O)c1)O2

pIC50 [5]: < 5.70
Compound: COc1cc2oc(C)c(C(=O)O)c2cc1OS(=O)(=O)O

pIC50 [5]: 6.82
Compound: COc1cc(CCCS(=O)(=O)O)ccc1O[C@H](Cc1cccc(OC)c1O)CS(=O)(=O)O

Compound: Cc1ccc(C(=O)Nc2ccc(CP(=O)(O)O)cc2CP(=O)(O)O)cc1NC(=O)c1cccc(NC(=O)Nc2cccc(C(=O)Nc3cc(C(=O)Nc4ccc(CP(=O)(O)O)cc4CP(=O)(O)O)ccc3C)c2)c1
Activity [1]: 68%

pIC50 [6]: 6.55
Compound: O=C(O[C@@H]1[C@H](OC(=O)c2cc(OS(=O)(=O)O)cc(OS(=O)(=O)O)c2)[C@@H](OC(=O)c2cc(OS(=O)(=O)O)cc(OS(=O)(=O)O)c2)[C@H](OC(=O)c2ccc(OS(=O)(=O)O)cc2OS(=O)(=O)O)[C@@H](OC(=O)c2cc(OS(=O)(=O)O)cc(OS(=O)(=O)O)c2)[C@H]1OC(=O)c1cc(OS(=O)(=O)O)cc(OS(=O)(=O)O)c1)c1cc(OS(=O)(=O)O)cc(OS(=O)(=O)O)c1

pIC50 [5]: 5.14
Compound: COc1cc2oc(C)c(C(=O)OC(C)(C)C)c2cc1OCc1oc2cc(OC)c(OS(=O)(=O)O)cc2c1C(=O)OC(C)(C)C

Reference: ChEMBL document CHEMBL5338735, “Designing Smaller, Synthetic, Functional Mimetics of Sulfated Glycosaminoglycans as Allosteric Modulators of Coagulation Factors” (J Med Chem, 2023)
